In this assay the target is T1, monoamine oxidase A (MAO-A) (Homo sapiens, UniProt P21397).
T1 construct: gene MAOA; recombinant MAO-A
T1 sequence (P21397 1-527): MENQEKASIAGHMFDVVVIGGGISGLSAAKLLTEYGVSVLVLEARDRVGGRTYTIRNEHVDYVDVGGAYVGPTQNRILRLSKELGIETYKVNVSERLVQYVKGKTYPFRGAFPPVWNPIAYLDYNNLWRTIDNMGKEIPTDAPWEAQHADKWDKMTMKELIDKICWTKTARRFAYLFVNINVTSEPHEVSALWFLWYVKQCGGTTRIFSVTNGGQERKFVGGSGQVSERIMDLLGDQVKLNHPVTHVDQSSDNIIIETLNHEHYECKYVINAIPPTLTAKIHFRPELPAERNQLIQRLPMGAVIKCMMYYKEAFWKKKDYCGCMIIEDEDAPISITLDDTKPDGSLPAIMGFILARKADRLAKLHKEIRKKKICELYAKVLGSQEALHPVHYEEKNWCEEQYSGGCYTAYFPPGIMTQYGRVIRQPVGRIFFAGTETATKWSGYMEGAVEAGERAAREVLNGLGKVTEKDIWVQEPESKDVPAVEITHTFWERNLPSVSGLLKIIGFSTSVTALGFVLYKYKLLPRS
The assay can be described thus: fluorometric Ampliflu Red/HRP assay with tyramine; Lineweaver-Burk kinetics (IC50 also […]). In kind it is biochemical.

As a reminder, the Ki is the dissociation constant of the complex between target and ligand, obtained from inhibition or displacement. Take `S=C(NN=Cc1ccc(Sc2ccc(Cl)cc2)cc1)NC1CCCCC1` [B24, N-Cyclohexyl-2-[4-[(4-chlorophenyl)thio]benzylidene]hydrazine-1-carbothioamide]: the affinity corresponds to a Ki of 0.142 µM.

(Values after paper PMC6017703, “Synthesis and Biological Evaluation of New Thiosemicarbazone Derivative Schiff Bases as Monoamine Oxidase Inhibitory Agents” (Molecules : A Journal of Synthetic Chemistry and Natural …, 2017).)
